Patent US8119614B2, “Substitution derivatives of N6-benzyladenosine, methods of their preparation, their use for preparation of drugs, cosmetic preparations and growth regulators, pharmaceutical preparations, cosmetic preparations and growth regulators containing these compounds” (Ustav Experimentalni Botaniky Akademie Ved Ceske Republiky, priority 2002, dated 2012)

How the values were obtained:
Type in all cases: cell-based, human
p21^WAF-1 protein = assay: Induction of p21^WAF-1 protein in MCF-7 cells (SDS-PAGE, immunodetection)
Procedure: MCF-7 cells cultured at 37° C. in 5% CO2 atmosphere in D-MEM medium supplemented with 10% foetal calf serum were treated with 2OH3MeOBAPR concentrations range of 0-100 μM. 2OH3MeOBAPR was added into the medium from the 100 mM storage solution in DMSO. Cells were harvested after 12 hours incubation with 2OH3MeOBAPR, centrifuged (1000 rpm, 4° C., 5 min), washed twice by ice-cold PBS and re-centrifuged. These washed cells were then lysed by 1×CSB (loading buffer for SDS-PAGE, i.e. electrophoresis of proteins in polyacrylamide gel containing SDS). Cell lysate proteins were separated by SDS-PAGE and transferred onto a nitrocelulose (NC) membrane. NC membrane was blocked by 5% skimmed milk, 0.1% Tween 20 in PBS. Protein level of p21^WAF-1 and actin (as a loaded protein volume control) were detected immunochemically using commercially available specific monoclonal antibodies anti-p21^WAF-1 (Ab-1, Calbiochem) and anti-Actin (Clone AC-40, Sigma-Aldrich). The primary antibodies bind to target proteins were detected using rabbit secondary peroxidase-labeled antibody (RAM-Px, DAKO), followed by chemiluminiscence (ECL, Amersham-Pharmacia).
MCF-7 cells were incubated in presence of 1 μM 2OH3MeOBAPR. Treated cells were harvested and lysed after various time periods of 2OH3MeOBAPR treatment. […]

HL-60 cells [1] = assay: Induction of apoptosis in HL-60 cells (nuclear morphology, DNA fragmentation); conditions: 24 h (FIG. 5-7)
Procedure: (§1) Cell culture. A suspension of human promyelocytic HL-60 cells was cultured in RPMI-1640 medium supplemented with a 10% calf foetal serum and antibiotics in 5% CO2 atmosphere at 37° C. Cells were maintained at density from 1×10^5 to 6×10^5 cells per ml. HL-60 cells were obtained from ECACC.
Morphological analysis of cell nuclei. Cells were harvested, washed in PBS, and fixed in an ice-cold methanol+acetic acid (3:1) fixation mixture. Aliquots of cells were spread on glass slides and stained with Hoechst 33342 (2 μg/ml) in PBS. The morphology of cell nuclei was examined by a fluorescence microscope (Mlejnek and Kuglik 2000).
DNA fragmentation assay. Aliquots of cells were washed in PBS and lysed by addition of DNA lysis buffer (50 mM Tris/HCl, pH=8.0, 10 mM EDTA, 0.5% sodium lauroyl sarcosine, and 0.5 mg/ml proteinase K) at 37° C. overnight. Samples were treated further with DNase-free RNase-A (0.2 mg/ml) at 37° C. for 3 h. The resulting extracts were loaded onto 1.8% agarose gel containing ethidium bromide (Mlejnek and Kuglik 2000).

HL-60 cells [2] = assay: Cell cycle analysis (flow cytometry); conditions: 5 μM, 24 h (FIG. 8)
Procedure: as §1
Cell cycle analysis. Cells were washed in PBS and then fixed in 70% ethanol at −20° C. over night. Fixed cells are washed in PBS and stained in PBS containing PI (20 μg/ml) and RNase A (100 μg/ml) for 30 min at 37° C. prior to FACScan analysis (Mlejnek and Kolman 1999).

SMILES: COc1cccc(CNc2ncnc3c2ncn3[C@@H]2O[C@H](CO)[C@@H](O)[C@H]2O)c1O [2-hydroxy-3-methoxybenzylamino, 6-(2-hydroxy-3-methoxybenzylamino)purine riboside]
- p21^WAF-1 protein induction in dependence on duration of incubation (p21^WAF-1 protein; 1 μM, 6-24 hours after addition): Efficient p21^WAF-1 protein induction is achieved
- p21^WAF-1 protein induction in dependence on concentration (p21^WAF-1 protein; 12 hours, 0-100 μM, effective at units of μmol/liter): Efficient p21^WAF-1 protein induction is achieved
- induction of HL-60 cell death / apoptosis (HL-60 cells [1]): induce HL-60 cell death, with typical morphological and biochemical characteristics of apoptosis
- effect on cell cycle (HL-60 cells [2]): does not inhibit cell cycle in certain control point(s), but rather unspecifically
